Source: DBAASP
≈ marks a conversion by molar mass, not a printed value. Each block holds one molecule with its values, some of them ahead of it.

Assays:
Assay in all cases: ≥ marks a high value that may be exact or a test limit, other limits are often not marked, values filed in µg/mL are converted to µM
[1] = system: Pseudomonas aeruginosa ATCC 13388
[2] = system: Staphylococcus aureus ATCC 6538
[3] = system: Escherichia coli ATCC 11219
[4] = system: Salmonella enterica subsp. enterica serovar Typhimurium ATCC 14028
[5] = system: Klebsiella pneumoniae ATCC 10031
[6] = system: Enterobacter cloacae ATCC 13047
[7] = system: Klebsiella pneumoniae ATCC 700603
[8] = system: Staphylococcus aureus ATCC 25923
[9] = system: Escherichia coli IS37#
[10] = system: Escherichia coli ATCC 25922
[11] = system: Enterococcus faecalis ATCC 29212
[12] = system: Staphylococcus aureus IS10#
[13] = system: Klebsiella pneumoniae IS59#
[14] = system: Candida albicans ATCC 90028
[15] = system: Staphylococcus aureus IS37#
[16] = system: Pseudomonas aeruginosa IS350#
[17] = system: Escherichia coli IS218#
[18] = system: Shigella dysenteriae
[19] = system: Escherichia coli IS117#
[20] = system: Pseudomonas aeruginosa CMCCB 1010
[21] = system: Pseudomonas aeruginosa ATCC 27853
[22] = system: Candida albicans ATCC 2002
[23] = system: Candida parapsilosis ATCC 22019
[24] = system: Candida glabrata
[25] = system: Streptococcus agalactiae
[26] = system: Candida albicans
[27] = system: Mycobacterium tuberculosis
[28] = system: Mycobacterium tuberculosis H37Rv
[29] = system: Pseudomonas aeruginosa ATCC 9027
[30] = system: Saccharomyces cerevisiae S288C

- MIC [1]: ≥ 50 µM
- MIC [2]: 30 µM (≈ 38.5 µg/mL)
- MIC [3]: ≥ 50 µM
- MIC [4]: > 50 µM
- MIC [5]: ≥ 50 µM
Compound: CC[C@H](C)[C@H](NC(=O)[C@H](CC(=O)O)NC(=O)[C@H](Cc1cnc[nH]1)NC(=O)[C@H](C)NC(=O)CN)C(=O)N[C@@H](CC(C)C)C(=O)N[C@@H](CCCCN)C(=O)N[C@@H](Cc1ccc(O)cc1)C(=O)NCC(=O)N[C@@H](CCCCN)C(=O)N1CCC[C@H]1C(=O)N[C@@H](CO)C(N)=O [GAHDILKYGKPS]

- MIC [6]: 2.52 µM (≈ 5 µg/mL)
- MIC [7]: 0.503 µM (≈ 0.999 µg/mL)
- MIC [8]: 5.03 µM (≈ 9.99 µg/mL)
- MIC [9]: 5.03 µM (≈ 9.99 µg/mL)
- MIC [10]: 2.52 µM (≈ 5 µg/mL)
- MIC [11]: 5.03 µM (≈ 9.99 µg/mL)
- MIC [12]: 2.52 µM (≈ 5 µg/mL)
- MIC [13]: 10.1 µM (≈ 20 µg/mL)
- MIC [14]: 1.26 µM (≈ 2.5 µg/mL)
- MIC [15]: 5.03 µM (≈ 9.99 µg/mL)
- MIC [16]: 10.1 µM (≈ 20 µg/mL)
- MIC [17]: 10.1 µM (≈ 20 µg/mL)
- MIC [18]: 5.03 µM (≈ 9.99 µg/mL)
- MIC [19]: 5.03 µM (≈ 9.99 µg/mL)
- MIC [20]: 0.503 µM (≈ 0.999 µg/mL)
- MIC [21]: 5.03 µM (≈ 9.99 µg/mL)
- MIC [22]: 1.01 µM (≈ 2 µg/mL)
- MIC [23]: 2.52 µM (≈ 5 µg/mL)
Compound: CC[C@H](C)[C@H](NC(=O)CNC(=O)[C@H](CO)NC(=O)[C@H](CC(C)C)NC(=O)[C@H](CC(C)C)NC(=O)CN)C(=O)N[C@@H](CC(C)C)C(=O)NCC(=O)N[C@@H](C)C(=O)NCC(=O)N[C@@H](CCCCN)C(=O)N[C@@H](CCCN=C(N)N)C(=O)N[C@H](C(=O)N[C@H](C(=O)N[C@H]1CSSC[C@@H](C(=O)O)NC(=O)[C@H](CC(C)C)NC(=O)CNC(=O)[C@H](CO)NC(=O)[C@H](CC(C)C)NC(=O)CNC1=O)C(C)C)[C@@H](C)CC [GLLSGILGAGKRIVCGLSGLC]

- MIC [8]: 2.5 µM (≈ 5.18 µg/mL)
- MIC [24]: ≥ 50 µM
- MIC [25]: 2.5 µM (≈ 5.18 µg/mL)
- MIC [10]: 24 µM (≈ 49.7 µg/mL)
- MIC [26]: 6.25 µM (≈ 12.9 µg/mL)
- MIC [27]: 4.8 µM (≈ 9.94 µg/mL)
- MIC [28]: 17.4 µM (≈ 36 µg/mL)
- MIC [29]: 2.5 µM (≈ 5.18 µg/mL)
Compound: CC[C@H](C)[C@H](NC(=O)[C@H](CCCCN)NC(=O)[C@H](CCCCN)NC(=O)[C@@H](NC(=O)[C@H](C)NC(=O)[C@H](CO)NC(=O)[C@@H](NC(=O)[C@H](C)NC(=O)[C@H](CO)NC(=O)[C@@H]1CCCN1C(=O)[C@@H](NC(=O)[C@H](CC(C)C)NC(=O)[C@H](CO)NC(=O)[C@H](CC(C)C)NC(=O)[C@H](CC(C)C)NC(=O)[C@H](Cc1ccccc1)NC(=O)[C@H](Cc1ccccc1)NC(=O)[C@@H]1CCCN1C(=O)[C@@H](N)CC(C)C)[C@@H](C)CC)[C@@H](C)CC)[C@@H](C)CC)C(N)=O [LPFFLLSLIPSAISAIKKI]

- MIC [30]: ≥ 40 µM
Compound: CC(C)C[C@H](NC(=O)[C@H](CC(N)=O)NC(=O)[C@H](Cc1c[nH]c2ccccc12)NC(=O)[C@@H](NC(=O)CNC(=O)CNC(=O)[C@H](CCCN=C(N)N)NC(=O)[C@H](CC(=O)O)NC(=O)[C@H](CC(C)C)NC(=O)[C@H](CCCN=C(N)N)NC(=O)[C@@H](N)CCCN=C(N)N)C(C)C)C(=O)N[C@@H](CC(N)=O)C(=O)N[C@H](C(=O)N[C@@H](CC(N)=O)C(=O)N1CCC[C@H]1C(=O)NCC(=O)N[C@H](C(=O)N[C@H](C(=O)NCC(=O)N[C@@H](C)C(=O)N[C@@H](CCCN=C(N)N)C(=O)N[C@H](C(=O)N[C@@H](Cc1c[nH]c2ccccc12)C(=O)N[C@@H](C)C(=O)N[C@@H](CCCN=C(N)N)C(=O)N[C@H](C(=O)N[C@@H](CCCCN)C(N)=O)[C@@H](C)O)C(C)C)[C@@H](C)O)[C@@H](C)O)C(C)C [RRLDRGGVWNLNVNPGTTGARVWARTK]
